Results published in paper PMC7321382, “Synthesis and Antibacterial Analysis of Analogues of the Marine Alkaloid Pseudoceratidine” (Molecules, 2020).
In brackets after ≈: the same amount, converted by molar mass.

Legend:
S. aureus 16207 = assay: Antibacterial MIC, broth microdilution, S. aureus; assay type: cell-based, Staphylococcus aureus; conditions: Staphylococcus aureus, 16207; Gram-positive; 24 h incubation; highest concentration tested 32 µM
Protocol: (§1) The MIC was determined using the broth microdilution method. Mueller Hinton (MH) broth base was prepared in milli-Q water, then autoclaved at 120 °C for 1 h before allowing it to cool to room temperature. A single colony of each bacterial strain (E. coli DH5α and S. aureus 16207) was inoculated in MHB and incubated at 37 °C overnight. Overnight cultures were adjusted to 10^6 CFU/mL in MHB according to the McFarland Standard,100 μL of which was further diluted to a total of 10 mL in the media. The stock solutions of the compounds were prepared at 12.8 mM in purified DMSO. The stock solutions were further diluted in milli-Q water to 64 μM in 0.5% DMSO for testing against S. aureus, and 256 μM in 2% DMSO for testing against E. coli. Compounds that were not soluble in these solvent mixtures were further diluted in half to get clear solutions for the bioassay. DMSO is known to have weak antibacterial activity. To exclude the antibacterial effect of DMSO from the results, a solution of 2% DMSO in milli-Q water was used as an additional control in the experiments. The compounds and three controls (the natural product pseudoceratidine 1 for both strains, streptomycin for S. aureus, and polymyxin B for E. coli) then underwent a dilution series. The assay was performed by adding 50 μL of each compound solution at the different concentrations and 50 μL of the diluted bacterial culture to the different wells of a 96-well microtiter plate. The experiments were performed at least thrice and in triplicates. MIC after 24 h of incubation was determined by both visual inspection and absorbance at 600 nm using an EnSpire Multimode plate reader.

E. coli DH5α = assay: Antibacterial MIC, broth microdilution, E. coli; assay type: cell-based, Escherichia coli; conditions: Gram-negative, 24 h incubation, highest concentration tested 128 µM, † lower starting concentration due to insolubility; for MIC: Escherichia coli
Protocol: as §1

Molecule	MIC (S. aureus 16207) [µM]	MIC (E. coli DH5α) [µM]	melting point [°C]	MIC E. Coli (E. coli DH5α) [µM]
O=C(NCCCCNC(=O)c1ccc[nH]1)c1ccc[nH]1 [Compound 12a]	> 32	> 128	215 to 216	
O=C(NCCCCNC(=O)c1cc(Cl)c[nH]1)c1cc(Cl)c[nH]1 [Compound 12b]	> 32	> 64	> 230	
O=C(NCCCCNC(=O)c1cc(Cl)c(Cl)[nH]1)c1cc(Cl)c(Cl)[nH]1 [Compound 12c]	> 32	> 64	> 230	
O=C(NCCCCNC(=O)c1cc(Br)c[nH]1)c1cc(Br)c[nH]1 [Compound 12d]	> 32	> 64	> 230	
O=C(NCCCCNC(=O)c1cc(Br)c(Br)[nH]1)c1cc(Br)c(Br)[nH]1 [Compound 12e]	> 32	> 64	> 230	
O=C(NCCCCNC(=O)c1cc(I)c[nH]1)c1cc(I)c[nH]1 [Compound 12f]	> 32	> 64		
O=C(NCCNCCNC(=O)c1ccc[nH]1)c1ccc[nH]1 [Compound 13a]	> 32	> 128	191 to 193	
O=C(NCCNCCNC(=O)c1cc(Cl)c[nH]1)c1cc(Cl)c[nH]1 [Compound 13b]	> 32	> 128	199 to 201	
O=C(NCCNCCNC(=O)c1cc(Cl)c(Cl)[nH]1)c1cc(Cl)c(Cl)[nH]1 [Compound 13c]	> 32	> 64	> 230	
O=C(NCCNCCNC(=O)c1cc(Br)c[nH]1)c1cc(Br)c[nH]1 [Compound 13d]	> 32	> 128	201 to 203	
O=C(NCCNCCNC(=O)c1cc(Br)c(Br)[nH]1)c1cc(Br)c(Br)[nH]1 [Compound 13e]	> 32	> 64	> 230	
O=C(NCCNCCNC(=O)c1cc(I)c[nH]1)c1cc(I)c[nH]1 [Compound 13f]	> 32	> 64	193 to 195	
O=C(NCCCNCCCNC(=O)c1ccc[nH]1)c1ccc[nH]1 [Compound 14a]	> 32	> 128	165 to 166	
O=C(NCCCNCCCNC(=O)c1cc(Cl)c[nH]1)c1cc(Cl)c[nH]1 [Compound 14b]	> 32	> 128	78 to 80	
O=C(NCCCNCCCNC(=O)c1cc(Br)c[nH]1)c1cc(Br)c[nH]1 [Compound 14d]	> 32	> 128	73 to 75	
O=C(NCCCNCCCNC(=O)c1cc(I)c[nH]1)c1cc(I)c[nH]1 [Compound 14f]	> 32	> 128	93 to 95	
O=C(NCCCCCCNCCCCCCNC(=O)c1ccc[nH]1)c1ccc[nH]1 [Compound 15a]	> 32	> 128	129 to 131	
O=C(NCCCCCCNCCCCCCNC(=O)c1cc(Cl)c[nH]1)c1cc(Cl)c[nH]1 [Compound 15b]	> 32	> 128	106 to 108	
O=C(NCCCCCCNCCCCCCNC(=O)c1cc(Br)c[nH]1)c1cc(Br)c[nH]1 [Compound 15d]	> 32	> 64	178 to 180	
O=C(NCCCCCCNCCCCCCNC(=O)c1cc(I)c[nH]1)c1cc(I)c[nH]1 [Compound 15f]	> 32	> 64	174 to 176	
O=C(NCCCNCCNC(=O)c1ccc[nH]1)c1ccc[nH]1 [Compound 16a]	> 32	> 128	69 to 71	
O=C(NCCCNCCNC(=O)c1cc(Cl)c[nH]1)c1cc(Cl)c[nH]1 [Compound 16b]	> 32	> 128	167 to 169	
O=C(NCCCNCCNC(=O)c1cc(Br)c[nH]1)c1cc(Br)c[nH]1 [Compound 16d]	> 32	> 128	188 to 190	
O=C(NCCCNCCNC(=O)c1cc(I)c[nH]1)c1cc(I)c[nH]1 [Compound 16f]	> 32	> 128	178 to 180	

Molecule	MIC (S. aureus 16207) [µM]	MIC (E. coli DH5α) [µM]	melting point [°C]	MIC E. Coli (E. coli DH5α) [µM]
O=C(NCCCCNCCCNC(=O)c1ccc[nH]1)c1ccc[nH]1 [Compound 17a]	> 32	> 128		
O=C(NCCCCNCCCNC(=O)c1cc(Cl)c[nH]1)c1cc(Cl)c[nH]1 [Compound 17b]	> 32	> 128	80 to 81	
O=C(NCCCCNCCCNC(=O)c1cc(Cl)c(Cl)[nH]1)c1cc(Cl)c(Cl)[nH]1 [Compound 17c]	> 32	128 to 256 (≈ 60.1 to 120 µg/mL)		
O=C(NCCCCNCCCNC(=O)c1cc(Br)c[nH]1)c1cc(Br)c[nH]1 [Compound 17d]	> 32	> 128		
O=C(NCCCCNCCCNC(=O)c1cc(I)c[nH]1)c1cc(I)c[nH]1 [Compound 17f]	> 32	> 128	89 to 90	
O=C(NCCCNCCCNCCCNC(=O)c1ccc[nH]1)c1ccc[nH]1 [Compound 18a]	> 32	> 128		
O=C(NCCCNCCCNCCCNC(=O)c1cc(Cl)c[nH]1)c1cc(Cl)c[nH]1 [Compound 18b]	> 32	64 to 128 (≈ 28.4 to 56.8 µg/mL)		
O=C(NCCCNCCCNCCCNC(=O)c1cc(Br)c[nH]1)c1cc(Br)c[nH]1 [Compound 18d]	16 to 32 (≈ 8.52 to 17 µg/mL)	64 to 128 (≈ 34.1 to 68.1 µg/mL)		
NCCNCCNC(=O)c1ccc[nH]1 [Compound 20]	> 32	> 128		
NCCCNCCNC(=O)c1cc(Br)c[nH]1 [Compound 21]	> 32	> 128		
NCCNCCCNC(=O)c1cc(Br)c[nH]1 [Compound 22]	> 32	> 128		
NCCCNCCNC(=O)c1cc(Br)c(Br)[nH]1 [Compound 23]	> 32	> 128		
NCCNCCCNC(=O)c1cc(Br)c(Br)[nH]1 [Compound 24]	> 32	> 128		
CN(C)CCCNC(=O)c1ccc[nH]1 [Compound 27a]	> 32	> 128		
CN(C)CCCNC(=O)c1cc(Cl)c[nH]1 [Compound 27b]	> 32	> 128		
CN(C)CCCNC(=O)c1cc(Cl)c(Cl)[nH]1 [Compound 27c]	> 32	> 128		
CN(C)CCCNC(=O)c1cc(Br)c[nH]1 [Compound 27d]	> 32	> 128		
CN(C)CCCNC(=O)c1cc(Br)c(Br)[nH]1 [Compound 27e]	> 32	> 128		
CC(C)(C)OC(=O)NCCCNC(=O)c1cc(Cl)c[nH]1 [Compound 28b]	> 32	> 128		
CC(C)(C)OC(=O)NCCCNC(=O)c1cc(Br)c[nH]1 [Compound 28d]	> 32	> 128		
CC(C)(C)OC(=O)NCCCNC(=O)c1cc(Br)c(Br)[nH]1 [Compound 28e]	> 32	> 128		
[H]/N=C(/N)N[C@H]1[C@H](O)[C@@H](O)[C@H](O[C@@H]2O[C@@H](C)[C@](O)(C=O)[C@H]2O[C@@H]2O[C@@H](CO)[C@H](O)[C@@H](O)[C@@H]2NC)[C@@H](N/C(N)=N\[H])[C@@H]1O [Streptomycin, streptomycin, reference compound]	0.625 to 1.25 (≈ 0.363 to 0.727 µg/mL)			
polymyxin B [reference compound]				0.3 to 0.6
